Reference: ChEMBL document CHEMBL4396872, “Pharmacokinetics-Driven Optimization of 4(3 H)-Pyrimidinones as Phosphodiesterase Type 5 Inhibitors Leading to TPN171, a Clinical Candidate for the Treatment of Pulmonary Arterial Hypertension” (J Med Chem, 2019)
The source made the active and inactive calls. The rule behind the calls is not given here.

How the values were obtained:
[1] = test system: Rattus norvegicus; assay: Antihypertensive activity in spontaneously hypertensive rat assessed as reduction in mean arterial pressure at 20 mg/kg administered via single gavage measured up to 24 hrs; assay type: functional, organism-based
[2] = Metabolic stability in human liver microsomes assessed as parent compound remaining at 1 uM in presence of NADPH after 30 mins by LC-MS/MS analysis; assay type: ADME, Microsome; conditions: read-out: Stability
[3] = target: Phosphodiesterase 1 (Homo sapiens, UniProt P54750+Q01064+Q14123); assay: Inhibition of N-terminal GST-tagged human PDE1 expressed in baculovirus infected sf9 cells using [3H]cAMP as substrate measured after 30 mins by scintillation proximity assay
[4] = target: Cone cGMP-specific 3',5'-cyclic phosphodiesterase subunit alpha' (Homo sapiens, UniProt P51160); assay: Inhibition of N-terminal GST-tagged human PDE6C expressed in baculovirus infected sf9 cells using [3H]cGMP as substrate measured after 30 mins by scintillation proximity assay
[5] = target: Dual 3',5'-cyclic-AMP and -GMP phosphodiesterase 11A (Homo sapiens, UniProt Q9HCR9); assay: Inhibition of N-terminal GST-tagged human PDE11A4 expressed in baculovirus infected sf9 cells using [3H]cGMP as substrate measured after 30 mins by scintillation proximity assay
[6] = Tmax in Sprague-Dawley rat at 1 mg/kg, po measured up to 24 hrs by LC-MS/MS analysis; assay type: ADME, organism-based; conditions: in vivo
[7] = Cmax in Sprague-Dawley rat at 1 mg/kg, po measured up to 24 hrs by LC-MS/MS analysis; assay type: ADME, organism-based; parameters: dose 1 mg/kg, route oral; conditions: in vivo
[8] = AUC (0 to t) in Sprague-Dawley rat at 1 mg/kg, iv measured up to 24 hrs by LC-MS/MS analysis; assay type: ADME, organism-based; parameters: time < 24 hr, dose 1 mg/kg, route intravenous; conditions: in vivo
[9] = AUC (0 to t) in Sprague-Dawley rat at 1 mg/kg, po measured up to 24 hrs by LC-MS/MS analysis; assay type: ADME, organism-based; parameters: time < 24 hr, dose 1 mg/kg, route oral; conditions: in vivo
[10] = AUC (0 to infinity) in Sprague-Dawley rat at 1 mg/kg, iv measured up to 24 hrs by LC-MS/MS analysis; assay type: ADME, organism-based; parameters: dose 1 mg/kg, time infinity, route intravenous; conditions: in vivo
[11] = AUC (0 to infinity) in Sprague-Dawley rat at 1 mg/kg, po measured up to 24 hrs by LC-MS/MS analysis; assay type: ADME, organism-based; parameters: dose 1 mg/kg, route oral, time infinity; conditions: in vivo
[12] = MRT in Sprague-Dawley rat at 1 mg/kg, iv measured up to 24 hrs by LC-MS/MS analysis; assay type: ADME, organism-based; conditions: in vivo
[13] = MRT in Sprague-Dawley rat at 1 mg/kg, po measured up to 24 hrs by LC-MS/MS analysis; assay type: ADME, organism-based; conditions: in vivo
[14] = Half-life in Sprague-Dawley rat at 1 mg/kg, iv measured up to 24 hrs by LC-MS/MS analysis; assay type: ADME, organism-based; conditions: in vivo
[15] = Half-life in Sprague-Dawley rat at 1 mg/kg, po measured up to 24 hrs by LC-MS/MS analysis; assay type: ADME, organism-based; conditions: in vivo
[16] = Clearance in Sprague-Dawley rat at 1 mg/kg, iv measured up to 24 hrs by LC-MS/MS analysis; assay type: ADME, organism-based; conditions: in vivo
[17] = Volume of distribution at steady state in Sprague-Dawley rat at 1 mg/kg, iv measured up to 24 hrs by LC-MS/MS analysis; assay type: ADME, organism-based; conditions: in vivo, read-out: Vdss
[18] = Oral bioavailability in Sprague-Dawley rat at 1 mg/kg measured up to 24 hrs by LC-MS/MS analysis; assay type: ADME, organism-based; conditions: in vivo
[19] = Tmax in Beagle dog at 0.5 mg/kg, po measured up to 24 hrs by LC-MS/MS analysis; assay type: ADME, organism-based, Canis lupus familiaris; conditions: in vivo
[20] = Cmax in Beagle dog at 0.5 mg/kg, po measured up to 24 hrs by LC-MS/MS analysis; assay type: ADME, organism-based, Canis lupus familiaris; parameters: dose 0.5 mg/kg, route oral; conditions: in vivo
[21] = AUC (0 to t) in Beagle dog at 0.5 mg/kg, iv measured up to 24 hrs by LC-MS/MS analysis; assay type: ADME, organism-based, Canis lupus familiaris; parameters: time < 24 hr, dose 0.5 mg/kg, route intravenous; conditions: in vivo
[22] = AUC (0 to t) in Beagle dog at 0.5 mg/kg, po measured up to 24 hrs by LC-MS/MS analysis; assay type: ADME, organism-based, Canis lupus familiaris; parameters: time < 24 hr, dose 0.5 mg/kg, route oral; conditions: in vivo
[23] = AUC (0 to infinity) in Beagle dog at 0.5 mg/kg, iv measured up to 24 hrs by LC-MS/MS analysis; assay type: ADME, organism-based, Canis lupus familiaris; parameters: dose 0.5 mg/kg, time infinity, route intravenous; conditions: in vivo
[24] = AUC (0 to infinity) in Beagle dog at 0.5 mg/kg, po measured up to 24 hrs by LC-MS/MS analysis; assay type: ADME, organism-based, Canis lupus familiaris; parameters: dose 0.5 mg/kg, time infinity, route oral; conditions: in vivo
[25] = MRT in Beagle dog at 0.5 mg/kg, iv measured up to 24 hrs by LC-MS/MS analysis; assay type: ADME, organism-based, Canis lupus familiaris; conditions: in vivo
[26] = MRT in Beagle dog at 0.5 mg/kg, po measured up to 24 hrs by LC-MS/MS analysis; assay type: ADME, organism-based, Canis lupus familiaris; conditions: in vivo
[27] = Half-life in Beagle dog at 0.5 mg/kg, iv measured up to 24 hrs by LC-MS/MS analysis; assay type: ADME, organism-based, Canis lupus familiaris; conditions: in vivo
[28] = Half-life in Beagle dog at 0.5 mg/kg, po measured up to 24 hrs by LC-MS/MS analysis; assay type: ADME, organism-based, Canis lupus familiaris; conditions: in vivo
[29] = Clearance in Beagle dog at 0.5 mg/kg, iv measured up to 24 hrs by LC-MS/MS analysis; assay type: ADME, organism-based, Canis lupus familiaris; conditions: in vivo
[30] = Volume of distribution at steady state in Beagle dog at 0.5 mg/kg, iv measured up to 24 hrs by LC-MS/MS analysis; assay type: ADME, organism-based, Canis lupus familiaris; conditions: in vivo, read-out: Vdss
[31] = Oral bioavailability Beagle dog at 0.5 mg/kg measured up to 24 hrs by LC-MS/MS analysis; assay type: ADME, organism-based, Canis lupus familiaris; conditions: in vivo
[32] = Terminal half life in human at 5 mg, po administered once daily measured under phase 1 clinical trials; assay type: ADME, organism-based; conditions: in vivo, read-out: beta t1/2 (converted)
[33] = test system: Rattus norvegicus; assay: Antihypertensive activity in spontaneously hypertensive rat assessed as reduction in mean arterial pressure at 20 mg/kg administered via single gavage and measured at 2 hrs; assay type: functional, organism-based
[34] = test system: Rattus norvegicus; assay: Antihypertensive activity in spontaneously hypertensive rat assessed as reduction in mean arterial pressure at 20 mg/kg administered via single gavage and measured at 4 hrs; assay type: functional, organism-based
[35] = test system: Rattus norvegicus; assay: […] activity in MCT-induced pulmonary arterial hypertension Sprague-Dawley rat model assessed as reduction in mean pulmonary artery pressure at 1 mg/kg administered once daily for 21 days starting from 21 days post-MCT challenge by right cardiac catheter method; assay type: functional, organism-based
[36] = test system: Rattus norvegicus; assay: […] activity in MCT-induced pulmonary arterial hypertension Sprague-Dawley rat model assessed as reduction in mean pulmonary artery pressure at 25 mg/kg administered once daily for 21 days starting from 21 days post-MCT challenge by right cardiac catheter method; assay type: functional, organism-based
[37] = test system: Rattus norvegicus; assay: […] activity in MCT-induced pulmonary arterial hypertension Sprague-Dawley rat model assessed as reduction in mean pulmonary artery pressure at 100 mg/kg administered once daily for 21 days starting from 21 days post-MCT challenge by right cardiac catheter method; assay type: functional, organism-based
[38] = target: T1, cGMP-specific 3',5'-cyclic phosphodiesterase (Homo sapiens, UniProt O76074)
[39] = target: T1, cGMP-specific 3',5'-cyclic phosphodiesterase; remark: listed apart in the source
[40] = target: T1, cGMP-specific 3',5'-cyclic phosphodiesterase; remark: listed apart in the source

Sequence of Dual 3',5'-cyclic-AMP and -GMP phosphodiesterase 11A (Q9HCR9 whole entry): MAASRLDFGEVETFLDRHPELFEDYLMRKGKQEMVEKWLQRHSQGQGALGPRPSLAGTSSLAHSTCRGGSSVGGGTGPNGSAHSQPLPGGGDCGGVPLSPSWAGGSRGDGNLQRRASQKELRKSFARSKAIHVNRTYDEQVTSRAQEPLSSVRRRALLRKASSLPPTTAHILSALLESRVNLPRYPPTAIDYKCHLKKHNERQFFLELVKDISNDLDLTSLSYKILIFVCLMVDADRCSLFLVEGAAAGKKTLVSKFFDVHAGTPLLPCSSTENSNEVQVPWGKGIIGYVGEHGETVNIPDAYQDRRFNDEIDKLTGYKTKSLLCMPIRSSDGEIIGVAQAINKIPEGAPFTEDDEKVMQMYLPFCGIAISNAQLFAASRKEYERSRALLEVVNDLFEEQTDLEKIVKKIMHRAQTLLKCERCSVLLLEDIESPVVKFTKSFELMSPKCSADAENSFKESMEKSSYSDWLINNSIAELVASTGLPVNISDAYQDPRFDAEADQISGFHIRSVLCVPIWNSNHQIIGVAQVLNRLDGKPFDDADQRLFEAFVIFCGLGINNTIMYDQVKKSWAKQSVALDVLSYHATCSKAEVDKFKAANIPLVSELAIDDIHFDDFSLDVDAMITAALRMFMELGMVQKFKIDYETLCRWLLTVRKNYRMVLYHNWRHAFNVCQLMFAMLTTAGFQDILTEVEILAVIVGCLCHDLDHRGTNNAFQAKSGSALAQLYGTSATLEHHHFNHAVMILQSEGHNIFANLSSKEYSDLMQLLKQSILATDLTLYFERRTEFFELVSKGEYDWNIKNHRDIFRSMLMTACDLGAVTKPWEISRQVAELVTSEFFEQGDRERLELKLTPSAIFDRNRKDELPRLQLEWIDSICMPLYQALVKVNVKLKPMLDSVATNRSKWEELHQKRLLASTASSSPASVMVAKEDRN
Sequence of Cone cGMP-specific 3',5'-cyclic phosphodiesterase subunit alpha' (P51160 whole entry): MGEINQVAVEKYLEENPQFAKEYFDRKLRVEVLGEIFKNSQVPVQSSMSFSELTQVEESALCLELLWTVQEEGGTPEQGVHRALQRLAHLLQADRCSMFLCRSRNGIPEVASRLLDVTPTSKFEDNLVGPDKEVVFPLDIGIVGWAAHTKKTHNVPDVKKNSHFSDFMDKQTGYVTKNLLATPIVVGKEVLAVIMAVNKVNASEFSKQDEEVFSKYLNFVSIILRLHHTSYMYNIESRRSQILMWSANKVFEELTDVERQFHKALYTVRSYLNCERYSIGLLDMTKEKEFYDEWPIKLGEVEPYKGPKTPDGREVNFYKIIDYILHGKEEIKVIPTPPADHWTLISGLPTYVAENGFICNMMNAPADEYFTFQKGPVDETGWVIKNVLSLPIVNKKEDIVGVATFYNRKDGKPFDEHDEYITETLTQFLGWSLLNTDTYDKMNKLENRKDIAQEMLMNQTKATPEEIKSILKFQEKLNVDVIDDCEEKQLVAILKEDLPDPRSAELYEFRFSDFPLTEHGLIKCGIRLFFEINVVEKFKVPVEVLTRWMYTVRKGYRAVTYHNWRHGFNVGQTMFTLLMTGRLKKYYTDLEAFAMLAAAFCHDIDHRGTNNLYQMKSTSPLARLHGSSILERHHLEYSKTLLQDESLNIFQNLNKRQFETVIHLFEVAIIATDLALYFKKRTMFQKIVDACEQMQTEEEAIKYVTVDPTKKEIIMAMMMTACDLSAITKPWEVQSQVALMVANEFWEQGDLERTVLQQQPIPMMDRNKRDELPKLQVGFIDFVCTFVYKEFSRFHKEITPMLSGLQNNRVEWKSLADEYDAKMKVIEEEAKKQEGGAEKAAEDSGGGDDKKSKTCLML

**Q.** With CCCOc1ccc(NC(=O)CN2CCN(C)CC2)cc1-c1nc(CC)c(CC)c(=O)[nH]1 as the molecule, how does the Activity [1] read?
**A.** The Activity was “Active”.

**Q.** And the remaining at 0.5 h, 1 µM [2]?
**A.** The remaining at 0.5 h, 1 µM was 91%.

**Q.** And the IC50 [3]?
**A.** The IC50 was 3640 nM.

**Q.** And the IC50 [4]?
**A.** Its IC50 is 19.8 nM.

**Q.** What about the IC50 [5] of the same molecule?
**A.** The IC50 was 998 nM.

**Q.** What about the Tmax [6] of the same molecule?
**A.** The Tmax was 2.8 h.

**Q.** And the Cmax [7]?
**A.** The Cmax was 43.9 ng/mL.

**Q.** What about the AUCt [8] of the same molecule?
**A.** The AUCt was 403 ng·h/mL.

**Q.** What about the AUCt [9] of the same molecule?
**A.** Its AUCt is 268 ng·h/mL.

**Q.** What about the AUC [10] of the same molecule?
**A.** Its AUC is 412 ng·h/mL.

**Q.** What about the AUC [11] of the same molecule?
**A.** Its AUC is 284 ng·h/mL.

**Q.** And the MRT [12]?
**A.** Its MRT is 2.22 h.

**Q.** And the MRT [13]?
**A.** The MRT was 5.56 h.

**Q.** What about the half-life [14] of the same molecule?
**A.** The half-life was 2.4 h.

**Q.** What about the half-life [15] of the same molecule?
**A.** Its half-life is 2.82 h.

**Q.** And the clearance [16]?
**A.** The clearance was 37.7 mL/min/kg.

**Q.** What about the Vd [17] of the same molecule?
**A.** The Vd was 4.97 L/kg.

**Q.** What about the bioavailability [18] of the same molecule?
**A.** Its bioavailability is 66.4%.

**Q.** What about the Tmax [19] of the same molecule?
**A.** The Tmax was 1.9 h.

**Q.** What about the Cmax [20] of the same molecule?
**A.** The Cmax was 66.5 ng/mL.

**Q.** And the AUCt [21]?
**A.** Its AUCt is 752 ng·h/mL.

**Q.** What about the AUCt [22] of the same molecule?
**A.** The AUCt was 495 ng·h/mL.

**Q.** What about the AUC [23] of the same molecule?
**A.** Its AUC is 773 ng·h/mL.

**Q.** What about the AUC [24] of the same molecule?
**A.** The AUC was 514 ng·h/mL.

**Q.** What about the MRT [25] of the same molecule?
**A.** The MRT was 6.07 h.

**Q.** And the MRT [26]?
**A.** Its MRT is 7.21 h.

**Q.** And the half-life [27]?
**A.** The half-life was 4.5 h.

**Q.** What about the half-life [28] of the same molecule?
**A.** The half-life was 4.89 h.

**Q.** And the clearance [29]?
**A.** The clearance was 10.8 mL/min/kg.

**Q.** What about the Vd [30] of the same molecule?
**A.** The Vd was 3.83 L/kg.

**Q.** What about the bioavailability [31] of the same molecule?
**A.** Its bioavailability is 67%.

**Q.** And the half-life [32]?
**A.** Its half-life is 10.9 h.

**Q.** What about the Activity [33] of the same molecule?
**A.** The Activity was “Active”.

**Q.** And the Activity [34]?
**A.** Its Activity is “Active”.

**Q.** And the Activity [35]?
**A.** Its Activity is “Active”.

**Q.** What about the Activity [36] of the same molecule?
**A.** Its Activity is “Active”.

**Q.** What about the Activity [37] of the same molecule?
**A.** Its Activity is “Active”.

**Q.** And the deltaG [38]?
**A.** The deltaG was -9.81 kcal/mol.

**Q.** And the deltaH [39]?
**A.** Its deltaH is -21.5 kcal/mol.

**Q.** And the -TdeltaS [40]?
**A.** Its -TdeltaS is 11.7 kcal/mol.
